For one experiment, the target named is AMPA receptors. Kind of experiment: binding affinity for the AMPA receptors (Honore et al.). The following applies: Table 1, AMPA.
In experiment [1] the target is kainate site (non-NMDA receptor). Kind of experiment: binding affinity for the kainate site (non-NMDA receptor) (London and Coyle). The following applies: Table 1, KA.

Regarding `CCOC(=O)CN(C)Cc1c(CC)c([N+](=O)[O-])cc2[nH]c(=O)c(=O)[nH]c12` [Compound 3, [(6-Ethyl-7-nitro-2,3-dioxo-1,2,3,4-tetrahydro-quinoxalin-5-ylmethyl)-methyl-amino]-acetic acid ethyl ester], at AMPA receptors, the IC50 (usually the concentration that inhibits the measured activity by half) was 0.128 µM. For the same compound, the “IC50 KA” value in experiment [1] is 3.48 µM.
For `CCc1ccc2[nH]c(=O)c(=O)[nH]c2c1CN(C)CC(=O)O` [Compound 4, [(6-Ethyl-2,3-dioxo-1,2,3,4-tetrahydro-quinoxalin-5ylmethyl)-methyl-amino]-acetic acid], in that order: 3.92 µM and 17.05 µM.
For `CCc1c(Br)cc2[nH]c(=O)c(=O)[nH]c2c1CN(C)CC(=O)O` [Compound 2, [(7-Bromo-6-ethyl-2,3-dioxo-1,2,3,4-tetrahydro-quinoxalin-5-ylmethyl)-methyl-amino]-acetic acid], in that order: 2.35 µM and 6.72 µM.
The matching figures for `C=Cc1c(Br)cc2[nH]c(=O)c(=O)[nH]c2c1CN(C)CC(=O)O` [Compound 1, [(7-Bromo-2,3-dioxo-6-vinyl-1,2,3,4-tetrahydro-quinoxalin-5-ylmethyl)-methyl-amino]-acetic acid]: 1.76 µM and 4.68 µM.

The values are drawn from US5614508A, “Amino acid derivatives of substituted quinoxaline 2,3-dione derivatives as glutamate receptor antagonists” (Warner-Lambert Company, priority 1995, dated 1997).
